Source: publication doi:10.1101/2024.08.19.608619, “Discovery of potent SARS-CoV-2 nsp3 macrodomain inhibitors uncovers lack of translation to cellular antiviral response” (bioRxiv, 2024)
Read-outs that look alike come from different tables or passages of the source.

Tests used:
Assay in all cases: biochemical
Set-up in all cases: In vitro kinase panel profiling, per cent remaining kinase activity at 10 uM
[1] = target: T1, AMPKα1(h) (Homo sapiens, UniProt Q13131); settings: atp_concentration=45, read-out: % of control remaining
T1 construct: gene PRKAA1
From the text: (§1) We derisk potential for off-target activity by profiling the compound in a CEREP panel, a standard secondary pharmacology assessment, as well as a kinase panel to derisk a potential hinge-binding motif in our leads, and a PARP panel to derisk activity against human […]. Reassuringly, the compounds are selective, with the only off-targets being moderate human CHRM2 and KOR receptors activity associated with ASAP-0011198.

[2] = target: T2, Abl(h) (Homo sapiens, UniProt P00519); settings: atp_concentration=45, read-out: % of control remaining
T2 construct: gene ABL1
From the text: as §1

[3] = target: CDK7/cyclinH/MAT1(h) (Homo sapiens, UniProt P50613); settings: atp_concentration=90, read-out: % of control remaining
From the text: as §1

[4] = target: T3, CaMKI(h) (Homo sapiens, UniProt Q14012); settings: atp_concentration=200, read-out: % of control remaining
T3 construct: gene CAMK1
From the text: as §1

[5] = target: EGFR(h) (Homo sapiens, UniProt P00533); settings: atp_concentration=10, read-out: % of control remaining
From the text: as §1

[6] = target: EphA5(h) (Homo sapiens, UniProt P54756); settings: atp_concentration=10, read-out: % of control remaining
From the text: as §1

[7] = target: Fyn(h) (Homo sapiens, UniProt P06241); settings: atp_concentration=70, read-out: % of control remaining
From the text: as §1

[8] = target: JAK2(h) (Homo sapiens, UniProt O60674); settings: atp_concentration=45, read-out: % of control remaining
From the text: as §1

[9] = target: T4, MST1(h) (Homo sapiens, UniProt Q13043); settings: atp_concentration=90, read-out: % of control remaining
T4 construct: gene STK4
T4 sequence (Q13043 1-487): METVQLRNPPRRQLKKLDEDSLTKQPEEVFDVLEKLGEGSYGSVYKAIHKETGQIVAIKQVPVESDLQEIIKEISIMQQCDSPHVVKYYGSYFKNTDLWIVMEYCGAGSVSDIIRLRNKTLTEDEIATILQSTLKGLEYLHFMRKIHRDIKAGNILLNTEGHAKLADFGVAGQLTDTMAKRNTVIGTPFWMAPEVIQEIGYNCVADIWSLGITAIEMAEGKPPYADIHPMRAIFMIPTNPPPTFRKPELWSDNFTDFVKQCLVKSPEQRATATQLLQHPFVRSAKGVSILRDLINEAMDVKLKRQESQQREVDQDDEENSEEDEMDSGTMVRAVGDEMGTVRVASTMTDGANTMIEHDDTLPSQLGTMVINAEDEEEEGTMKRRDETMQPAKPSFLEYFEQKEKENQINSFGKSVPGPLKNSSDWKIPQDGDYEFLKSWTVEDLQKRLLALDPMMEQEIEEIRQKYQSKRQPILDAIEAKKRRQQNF
From the text: as §1

[10] = target: T5, Mnk2(h) (Homo sapiens, UniProt Q9HBH9); settings: atp_concentration=120, read-out: % of control remaining
T5 construct: gene MKNK2
From the text: as §1

[11] = target: PAK2(h) (Homo sapiens, UniProt Q13177); settings: atp_concentration=90, read-out: % of control remaining
From the text: as §1

[12] = target: T6, PI3 Kinase (p110α/p85α)(h) (Homo sapiens, UniProt P42336); settings: atp_concentration=200, read-out: % of control remaining
T6 construct: gene PIK3CA
From the text: as §1

[13] = target: T7, PI3 Kinase (p110β/p85α)(h) (Homo sapiens, UniProt P42338); settings: atp_concentration=200, read-out: % of control remaining
T7 construct: gene PIK3CB
From the text: as §1

[14] = target: T8, PI3 Kinase (p120γ)(h) (Homo sapiens, UniProt P48736); settings: atp_concentration=100, read-out: % of control remaining
T8 construct: gene PIK3CG
From the text: as §1

[15] = target: T9, Pim-1(h) (Homo sapiens, UniProt P11309); settings: atp_concentration=90, read-out: % of control remaining
T9 construct: gene PIM1
From the text: as §1

T8 sequence (P48736 whole entry): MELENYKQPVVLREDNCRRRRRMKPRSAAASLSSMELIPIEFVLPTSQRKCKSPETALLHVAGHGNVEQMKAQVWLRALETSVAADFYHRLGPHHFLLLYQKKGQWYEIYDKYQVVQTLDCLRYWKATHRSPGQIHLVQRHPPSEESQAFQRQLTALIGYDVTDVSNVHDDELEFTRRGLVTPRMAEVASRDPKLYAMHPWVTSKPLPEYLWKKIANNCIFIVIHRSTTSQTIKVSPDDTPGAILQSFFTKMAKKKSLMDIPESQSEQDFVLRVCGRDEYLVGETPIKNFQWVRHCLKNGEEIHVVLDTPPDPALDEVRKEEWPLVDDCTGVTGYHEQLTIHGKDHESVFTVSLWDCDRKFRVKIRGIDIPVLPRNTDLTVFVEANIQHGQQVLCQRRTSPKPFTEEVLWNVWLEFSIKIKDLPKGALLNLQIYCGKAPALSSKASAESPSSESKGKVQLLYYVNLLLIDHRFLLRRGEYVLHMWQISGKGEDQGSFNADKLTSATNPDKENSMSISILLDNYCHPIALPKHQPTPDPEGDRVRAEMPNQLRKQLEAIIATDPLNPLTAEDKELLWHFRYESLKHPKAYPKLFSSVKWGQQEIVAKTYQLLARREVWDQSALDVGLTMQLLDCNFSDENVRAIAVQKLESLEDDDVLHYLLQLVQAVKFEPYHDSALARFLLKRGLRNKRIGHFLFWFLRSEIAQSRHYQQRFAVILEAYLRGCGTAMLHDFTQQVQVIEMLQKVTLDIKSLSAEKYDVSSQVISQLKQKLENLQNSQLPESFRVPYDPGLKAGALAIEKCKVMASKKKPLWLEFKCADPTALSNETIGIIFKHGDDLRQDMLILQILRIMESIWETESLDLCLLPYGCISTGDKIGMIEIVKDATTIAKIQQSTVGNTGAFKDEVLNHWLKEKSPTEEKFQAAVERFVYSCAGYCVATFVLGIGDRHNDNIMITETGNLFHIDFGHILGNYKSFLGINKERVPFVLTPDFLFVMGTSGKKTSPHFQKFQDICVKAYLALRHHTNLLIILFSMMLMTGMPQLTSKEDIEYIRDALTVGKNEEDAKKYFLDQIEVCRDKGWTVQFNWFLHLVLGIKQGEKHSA
T3 sequence (Q14012 whole entry): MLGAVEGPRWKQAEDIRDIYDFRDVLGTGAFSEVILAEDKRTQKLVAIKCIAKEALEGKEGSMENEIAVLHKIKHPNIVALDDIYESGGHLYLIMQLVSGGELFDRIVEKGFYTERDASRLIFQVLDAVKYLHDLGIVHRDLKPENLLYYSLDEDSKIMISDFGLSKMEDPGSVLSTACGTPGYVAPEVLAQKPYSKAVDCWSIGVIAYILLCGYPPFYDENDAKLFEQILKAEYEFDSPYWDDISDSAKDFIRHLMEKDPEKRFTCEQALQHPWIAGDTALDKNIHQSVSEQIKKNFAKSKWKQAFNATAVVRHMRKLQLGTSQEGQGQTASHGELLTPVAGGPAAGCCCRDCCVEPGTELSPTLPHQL
JAK2(h), sequence (O60674 whole entry): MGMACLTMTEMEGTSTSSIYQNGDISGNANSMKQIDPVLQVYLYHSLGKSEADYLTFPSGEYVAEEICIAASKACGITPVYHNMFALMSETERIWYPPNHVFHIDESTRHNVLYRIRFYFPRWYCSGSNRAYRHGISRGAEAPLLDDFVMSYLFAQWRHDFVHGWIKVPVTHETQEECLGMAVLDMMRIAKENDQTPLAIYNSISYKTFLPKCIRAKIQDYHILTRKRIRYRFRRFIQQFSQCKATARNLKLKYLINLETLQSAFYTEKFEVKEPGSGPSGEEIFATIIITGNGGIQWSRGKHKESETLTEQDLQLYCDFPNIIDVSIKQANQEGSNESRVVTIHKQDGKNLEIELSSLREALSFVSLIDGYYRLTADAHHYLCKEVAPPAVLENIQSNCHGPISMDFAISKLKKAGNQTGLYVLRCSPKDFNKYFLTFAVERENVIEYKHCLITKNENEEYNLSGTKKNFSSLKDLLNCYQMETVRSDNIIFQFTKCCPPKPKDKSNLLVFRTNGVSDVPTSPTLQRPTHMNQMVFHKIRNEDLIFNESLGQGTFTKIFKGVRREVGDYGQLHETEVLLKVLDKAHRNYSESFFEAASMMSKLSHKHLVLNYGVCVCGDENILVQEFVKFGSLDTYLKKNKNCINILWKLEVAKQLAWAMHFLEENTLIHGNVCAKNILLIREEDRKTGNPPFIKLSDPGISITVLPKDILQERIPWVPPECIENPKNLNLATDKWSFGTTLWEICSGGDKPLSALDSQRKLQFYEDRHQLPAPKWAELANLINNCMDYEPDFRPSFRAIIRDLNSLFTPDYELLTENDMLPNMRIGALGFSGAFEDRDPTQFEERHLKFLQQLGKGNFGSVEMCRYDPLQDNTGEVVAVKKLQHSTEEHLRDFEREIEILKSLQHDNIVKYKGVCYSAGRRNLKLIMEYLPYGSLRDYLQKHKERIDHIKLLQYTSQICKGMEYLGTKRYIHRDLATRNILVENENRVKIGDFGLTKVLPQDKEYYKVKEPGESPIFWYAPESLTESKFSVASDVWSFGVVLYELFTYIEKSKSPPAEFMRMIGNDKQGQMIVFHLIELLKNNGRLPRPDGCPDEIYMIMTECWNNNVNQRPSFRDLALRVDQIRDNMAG
PAK2(h), sequence (Q13177 whole entry): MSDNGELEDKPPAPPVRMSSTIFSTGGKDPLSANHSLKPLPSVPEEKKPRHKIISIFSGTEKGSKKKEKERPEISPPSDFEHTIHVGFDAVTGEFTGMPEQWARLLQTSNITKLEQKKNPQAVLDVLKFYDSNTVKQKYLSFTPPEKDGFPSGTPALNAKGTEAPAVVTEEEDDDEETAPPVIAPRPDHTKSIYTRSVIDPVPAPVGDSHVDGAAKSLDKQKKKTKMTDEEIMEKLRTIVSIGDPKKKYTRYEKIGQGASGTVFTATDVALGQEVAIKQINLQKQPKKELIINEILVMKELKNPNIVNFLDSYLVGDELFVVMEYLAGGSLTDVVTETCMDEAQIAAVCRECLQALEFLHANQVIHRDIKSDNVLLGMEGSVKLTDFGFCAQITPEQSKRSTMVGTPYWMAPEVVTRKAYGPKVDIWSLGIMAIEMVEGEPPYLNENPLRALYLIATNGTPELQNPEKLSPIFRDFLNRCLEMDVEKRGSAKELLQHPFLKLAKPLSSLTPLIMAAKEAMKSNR
T7 sequence (P42338 whole entry): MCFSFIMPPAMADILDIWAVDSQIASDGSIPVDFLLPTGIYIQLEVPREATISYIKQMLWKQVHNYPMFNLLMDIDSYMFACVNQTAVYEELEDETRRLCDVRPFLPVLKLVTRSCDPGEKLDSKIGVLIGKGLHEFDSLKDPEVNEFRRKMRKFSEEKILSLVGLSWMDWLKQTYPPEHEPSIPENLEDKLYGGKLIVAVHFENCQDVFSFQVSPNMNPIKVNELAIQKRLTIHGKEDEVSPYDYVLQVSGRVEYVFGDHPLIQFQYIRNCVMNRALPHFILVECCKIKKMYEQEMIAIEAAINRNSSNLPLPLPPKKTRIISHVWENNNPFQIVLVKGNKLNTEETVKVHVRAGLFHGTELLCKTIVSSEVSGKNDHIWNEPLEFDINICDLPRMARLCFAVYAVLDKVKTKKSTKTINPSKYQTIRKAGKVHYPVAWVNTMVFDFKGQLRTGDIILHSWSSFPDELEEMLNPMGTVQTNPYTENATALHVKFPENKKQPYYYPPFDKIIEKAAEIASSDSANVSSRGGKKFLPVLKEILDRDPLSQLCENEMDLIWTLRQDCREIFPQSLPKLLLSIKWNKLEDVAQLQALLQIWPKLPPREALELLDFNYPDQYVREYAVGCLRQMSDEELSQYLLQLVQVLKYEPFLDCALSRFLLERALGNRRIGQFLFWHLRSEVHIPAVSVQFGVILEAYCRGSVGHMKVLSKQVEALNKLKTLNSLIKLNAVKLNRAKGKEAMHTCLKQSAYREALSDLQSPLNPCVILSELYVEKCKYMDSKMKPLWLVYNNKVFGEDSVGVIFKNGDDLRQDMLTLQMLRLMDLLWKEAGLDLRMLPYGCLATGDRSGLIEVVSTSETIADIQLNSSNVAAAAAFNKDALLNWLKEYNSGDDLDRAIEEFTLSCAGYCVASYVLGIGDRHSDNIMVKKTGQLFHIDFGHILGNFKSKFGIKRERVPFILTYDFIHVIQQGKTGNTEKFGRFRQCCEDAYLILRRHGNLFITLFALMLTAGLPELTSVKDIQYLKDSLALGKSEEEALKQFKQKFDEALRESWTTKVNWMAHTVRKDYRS
T7 sequence (P27986 whole entry partner): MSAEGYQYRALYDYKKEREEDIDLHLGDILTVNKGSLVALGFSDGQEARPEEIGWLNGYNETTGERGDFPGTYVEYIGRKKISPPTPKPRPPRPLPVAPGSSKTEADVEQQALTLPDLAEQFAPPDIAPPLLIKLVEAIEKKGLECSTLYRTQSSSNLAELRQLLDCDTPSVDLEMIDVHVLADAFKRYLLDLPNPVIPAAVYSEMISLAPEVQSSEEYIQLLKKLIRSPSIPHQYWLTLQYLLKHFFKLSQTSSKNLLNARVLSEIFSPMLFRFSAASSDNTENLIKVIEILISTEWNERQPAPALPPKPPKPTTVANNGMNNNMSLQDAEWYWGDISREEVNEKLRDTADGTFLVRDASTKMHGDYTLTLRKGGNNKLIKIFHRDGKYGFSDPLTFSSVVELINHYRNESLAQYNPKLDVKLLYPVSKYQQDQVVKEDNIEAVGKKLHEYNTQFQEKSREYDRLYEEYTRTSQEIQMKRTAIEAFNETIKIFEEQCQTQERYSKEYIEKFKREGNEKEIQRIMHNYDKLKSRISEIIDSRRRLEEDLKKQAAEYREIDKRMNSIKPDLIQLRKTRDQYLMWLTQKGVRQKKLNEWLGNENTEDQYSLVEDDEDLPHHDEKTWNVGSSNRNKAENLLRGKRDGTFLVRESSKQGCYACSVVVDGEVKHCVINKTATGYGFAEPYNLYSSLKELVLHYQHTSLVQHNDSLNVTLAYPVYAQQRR

## CC(C)C(Nc1ncnc2[nH]c(C(=O)NC3CCN(C)C3)cc12)c1ccc2c(c1)S(=O)(=O)CCC2 (stereo not drawn) [ASAP-0011198]
[1]; batch_name=ASAP-0011198-002
  remaining activity at 10 µM: 107%
[2]; batch_name=ASAP-0011198-002
  remaining activity at 10 µM: 100%
[3]; batch_name=ASAP-0011198-002
  remaining activity at 10 µM: 101%
[4]; batch_name=ASAP-0011198-002
  remaining activity at 10 µM: 100%
[5]; batch_name=ASAP-0011198-002
  remaining activity at 10 µM: 102%
[6]; batch_name=ASAP-0011198-002
  remaining activity at 10 µM: 100%
[7]; batch_name=ASAP-0011198-002
  remaining activity at 10 µM: 107%
[8]; batch_name=ASAP-0011198-002
  remaining activity at 10 µM: 106%
[9]; batch_name=ASAP-0011198-002
  remaining activity at 10 µM: 122%
[10]; batch_name=ASAP-0011198-002
  remaining activity at 10 µM: 99%
[11]; batch_name=ASAP-0011198-002
  remaining activity at 10 µM: 99%
[12]; batch_name=ASAP-0011198-002
  remaining activity at 10 µM: 104%
[13]; batch_name=ASAP-0011198-002
  remaining activity at 10 µM: 99%
[14]; batch_name=ASAP-0011198-002
  remaining activity at 10 µM: 97%
[15]; batch_name=ASAP-0011198-002
  remaining activity at 10 µM: 97%

## COc1ccc([C@H](Cc2nnn[nH]2)NC(=O)c2ncnc3[nH]ccc23)cc1 [ASAP-0015381]
[1]; batch_name=ASAP-0015381-001
  remaining activity at 10 µM: 97%
[2]; batch_name=ASAP-0015381-001
  remaining activity at 10 µM: 102%
[3]; batch_name=ASAP-0015381-001
  remaining activity at 10 µM: 107%
[4]; batch_name=ASAP-0015381-001
  remaining activity at 10 µM: 103%
[5]; batch_name=ASAP-0015381-001
  remaining activity at 10 µM: 97%
[6]; batch_name=ASAP-0015381-001
  remaining activity at 10 µM: 102%
[7]; batch_name=ASAP-0015381-001
  remaining activity at 10 µM: 102%
[8]; batch_name=ASAP-0015381-001
  remaining activity at 10 µM: 116%
[9]; batch_name=ASAP-0015381-001
  remaining activity at 10 µM: 127%
[10]; batch_name=ASAP-0015381-001
  remaining activity at 10 µM: 115%
[11]; batch_name=ASAP-0015381-001
  remaining activity at 10 µM: 107%
[12]; batch_name=ASAP-0015381-001
  remaining activity at 10 µM: 99%
[13]; batch_name=ASAP-0015381-001
  remaining activity at 10 µM: 97%
[14]; batch_name=ASAP-0015381-001
  remaining activity at 10 µM: 88%
[15]; batch_name=ASAP-0015381-001
  remaining activity at 10 µM: 99%

## COc1ccc([C@@H](Cc2nnn[nH]2)NC(=O)c2ncnc3[nH]ccc23)cc1 [ASAP-0008340]
[1]; batch_name=ASAP-0008340-001
  remaining activity at 10 µM: 101%
[2]; batch_name=ASAP-0008340-001
  remaining activity at 10 µM: 98%
[3]; batch_name=ASAP-0008340-001
  remaining activity at 10 µM: 91%
[4]; batch_name=ASAP-0008340-001
  remaining activity at 10 µM: 100%
[5]; batch_name=ASAP-0008340-001
  remaining activity at 10 µM: 96%
[6]; batch_name=ASAP-0008340-001
  remaining activity at 10 µM: 106%
[7]; batch_name=ASAP-0008340-001
  remaining activity at 10 µM: 105%
[8]; batch_name=ASAP-0008340-001
  remaining activity at 10 µM: 102%
[9]; batch_name=ASAP-0008340-001
  remaining activity at 10 µM: 98%
[10]; batch_name=ASAP-0008340-001
  remaining activity at 10 µM: 84%
[11]; batch_name=ASAP-0008340-001
  remaining activity at 10 µM: 102%
[12]; batch_name=ASAP-0008340-001
  remaining activity at 10 µM: 101%
[13]; batch_name=ASAP-0008340-001
  remaining activity at 10 µM: 102%
[14]; batch_name=ASAP-0008340-001
  remaining activity at 10 µM: 89%
[15]; batch_name=ASAP-0008340-001
  remaining activity at 10 µM: 91%

## CNCc1cc(-c2cc3c(N[C@@H](c4ccc5c(c4)S(=O)(=O)CCC5)C(C)C)ncnc3[nH]2)co1 [ASAP-0011176]
[1]; batch_name=ASAP-0011176-002
  remaining activity at 10 µM: 86%
[2]; batch_name=ASAP-0011176-002
  remaining activity at 10 µM: 51%
[3]; batch_name=ASAP-0011176-002
  remaining activity at 10 µM: 100%
[4]; batch_name=ASAP-0011176-002
  remaining activity at 10 µM: 87%
[5]; batch_name=ASAP-0011176-002
  remaining activity at 10 µM: 97%
[6]; batch_name=ASAP-0011176-002
  remaining activity at 10 µM: 78%
[7]; batch_name=ASAP-0011176-002
  remaining activity at 10 µM: 64%
[8]; batch_name=ASAP-0011176-002
  remaining activity at 10 µM: 114%
[9]; batch_name=ASAP-0011176-002
  remaining activity at 10 µM: 108%
[10]; batch_name=ASAP-0011176-002
  remaining activity at 10 µM: 94%
[11]; batch_name=ASAP-0011176-002
  remaining activity at 10 µM: 94%
[12]; batch_name=ASAP-0011176-002
  remaining activity at 10 µM: 99%
[13]; batch_name=ASAP-0011176-002
  remaining activity at 10 µM: 92%
[14]; batch_name=ASAP-0011176-002
  remaining activity at 10 µM: 96%
[15]; batch_name=ASAP-0011176-002
  remaining activity at 10 µM: 93%

## Cn1ncc(-c2cc3c(N[C@@H](c4ccc5c(n4)OCCO5)C(C)(C)C)ncnc3[nH]2)c1C#N [ASAP-0011221]
[1]; batch_name=ASAP-0011221-002
  remaining activity at 10 µM: 109%
[2]; batch_name=ASAP-0011221-002
  remaining activity at 10 µM: 81%
[3]; batch_name=ASAP-0011221-002
  remaining activity at 10 µM: 108%
[4]; batch_name=ASAP-0011221-002
  remaining activity at 10 µM: 87%
[5]; batch_name=ASAP-0011221-002
  remaining activity at 10 µM: 99%
[6]; batch_name=ASAP-0011221-002
  remaining activity at 10 µM: 102%
[7]; batch_name=ASAP-0011221-002
  remaining activity at 10 µM: 82%
[8]; batch_name=ASAP-0011221-002
  remaining activity at 10 µM: 140%
[9]; batch_name=ASAP-0011221-002
  remaining activity at 10 µM: 115%
[10]; batch_name=ASAP-0011221-002
  remaining activity at 10 µM: 100%
[11]; batch_name=ASAP-0011221-002
  remaining activity at 10 µM: 111%
[12]; batch_name=ASAP-0011221-002
  remaining activity at 10 µM: 75%
[13]; batch_name=ASAP-0011221-002
  remaining activity at 10 µM: 91%
[14]; batch_name=ASAP-0011221-002
  remaining activity at 10 µM: 88%
[15]; batch_name=ASAP-0011221-002
  remaining activity at 10 µM: 107%

## C[C@H](C(=O)O)[C@@H](NC(=O)c1ncnc2[nH]ccc12)c1ccc(Br)cc1 [ASAP-0014722]
[1]; batch_name=ASAP-0014722-002
  remaining activity at 10 µM: 93%
[2]; batch_name=ASAP-0014722-002
  remaining activity at 10 µM: 97%
[3]; batch_name=ASAP-0014722-002
  remaining activity at 10 µM: 99%
[4]; batch_name=ASAP-0014722-002
  remaining activity at 10 µM: 101%
[5]; batch_name=ASAP-0014722-002
  remaining activity at 10 µM: 93%
[6]; batch_name=ASAP-0014722-002
  remaining activity at 10 µM: 99%
[7]; batch_name=ASAP-0014722-002
  remaining activity at 10 µM: 98%
[8]; batch_name=ASAP-0014722-002
  remaining activity at 10 µM: 99%
[9]; batch_name=ASAP-0014722-002
  remaining activity at 10 µM: 121%
[10]; batch_name=ASAP-0014722-002
  remaining activity at 10 µM: 110%
[11]; batch_name=ASAP-0014722-002
  remaining activity at 10 µM: 95%
[12]; batch_name=ASAP-0014722-002
  remaining activity at 10 µM: 100%
[13]; batch_name=ASAP-0014722-002
  remaining activity at 10 µM: 97%
[14]; batch_name=ASAP-0014722-002
  remaining activity at 10 µM: 97%
[15]; batch_name=ASAP-0014722-002
  remaining activity at 10 µM: 95%
